The target in the test is CDK7/CycH/MNAT1 (Homo sapiens (Human), UniProt P50613). The experiment in a line: Biochemical Assay for CDK7 (TR-FRET kinase assay). The settings on record: 60 min pre-incubation with kinase, 1 mM ATP; for % inhibition @ 10 μM / inhibition at 10 µM: 10 μM compound. The procedure:
Biochemical Assay for CDK7:
The ability of compounds to inhibit CDK7 kinase activity was tested in a TR-FRET assay using 5 nM of CDK7/CycH/MNAT1 obtained from Invitrogen, USA. Test compounds were pre-incubated with the kinase at room temperature for 60 min. After the incubation, substrate mix [100 nM Ultra-light MBP (Perkin Elmer, USA) and 1 mM ATP (Sigma)] was added. The above reaction was stopped by the addition of 40 mM EDTA after 60 minutes of kinase reaction. 1 nM Eu-labelled antiphospho-MBP antibody [Perkin Elmer, USA] was added, mixed well and the fluorescence emission at 615 nm and 665 nm [excitation at 340 nm] was measured. The final DMSO concentration in the assay was 1%. For IC50 determination, appropriate concentrations were made by ⅓^rd serial dilutions of 10 mM DMSO stock solution of test compound. All the fluorescence measurements were made in a Victor 3 Multilabel Counter [Perkin Elmer, USA]. The IC50 was determined by fitting the dose response data to sigmoidal curve fitting equation using GraphPad Prism software V5. To identify compounds that inhibit CDK7 irreversibly, time depended inhibition studies were carried by pre-incubating compound with the enzyme at three time points (20, 60 and 180 min) and carrying out assay as described above.
The compounds were screened by the above mentioned assay procedure.
Background: Time-resolved FRET reads energy transfer from a long-lived donor to a nearby acceptor.

As usually defined, the IC50 is the midpoint of a concentration-inhibition curve. Low values mean inhibition by little substance, high ones a need for much substance. In general, inhibition refers to how much of the control response was suppressed.

Chain of CDK7/CycH/MNAT1 (P50613 whole entry): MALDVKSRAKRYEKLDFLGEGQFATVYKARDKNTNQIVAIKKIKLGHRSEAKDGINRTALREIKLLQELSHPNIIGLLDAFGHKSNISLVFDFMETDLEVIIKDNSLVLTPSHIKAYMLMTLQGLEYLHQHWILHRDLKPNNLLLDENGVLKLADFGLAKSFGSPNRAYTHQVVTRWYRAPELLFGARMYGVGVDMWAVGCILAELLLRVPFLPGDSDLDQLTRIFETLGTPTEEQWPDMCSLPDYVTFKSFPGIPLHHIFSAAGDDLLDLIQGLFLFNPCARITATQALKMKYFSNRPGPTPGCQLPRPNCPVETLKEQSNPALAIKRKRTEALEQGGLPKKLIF
Chain of CDK7/CycH/MNAT1 (P51946 whole entry partner): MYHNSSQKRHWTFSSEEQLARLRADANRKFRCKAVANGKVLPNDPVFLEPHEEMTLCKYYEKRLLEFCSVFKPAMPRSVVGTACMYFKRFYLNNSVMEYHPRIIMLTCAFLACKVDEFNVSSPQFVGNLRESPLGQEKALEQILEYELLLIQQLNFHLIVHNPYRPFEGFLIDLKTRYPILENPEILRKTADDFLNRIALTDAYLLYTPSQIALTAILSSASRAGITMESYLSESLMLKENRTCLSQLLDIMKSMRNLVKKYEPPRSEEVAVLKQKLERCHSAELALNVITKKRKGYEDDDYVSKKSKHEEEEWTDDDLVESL
Chain of CDK7/CycH/MNAT1 (P51948 whole entry partner): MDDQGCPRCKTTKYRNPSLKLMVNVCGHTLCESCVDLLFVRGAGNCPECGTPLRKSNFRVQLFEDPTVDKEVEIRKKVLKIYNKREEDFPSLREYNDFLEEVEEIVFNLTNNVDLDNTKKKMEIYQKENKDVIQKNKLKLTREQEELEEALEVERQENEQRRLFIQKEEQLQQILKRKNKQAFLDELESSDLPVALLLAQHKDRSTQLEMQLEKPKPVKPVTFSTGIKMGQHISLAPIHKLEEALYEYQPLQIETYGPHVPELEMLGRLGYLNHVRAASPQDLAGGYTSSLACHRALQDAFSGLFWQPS

Take `CC(C(=O)Nc1cc(C2CC2)[nH]n1)c1cccc(-c2ccc(NC(=O)/C=C/CN(C)C)cc2)c1` (single isomer, unassigned) [Compound 2, (E)-N-(3′-(1-((5-cyclopropyl-1H-pyrazol-3-yl)amino)-1-oxopropan-2-yl)-[1,1′-biphenyl]-4-yl)-4-(dimethylamino)but-2-enamide]: the “% inhibition @ 10 μM” value is 69% and the concentration for half-maximal inhibition (IC50) is more than 100 nM.

As for `CC(C(=O)Nc1cc(C2CC2)[nH]n1)c1cccc(-c2ccc(NC(=O)/C=C/CN(C)C)cc2)c1` (single isomer, unassigned) [Compound 3, (E)-N-(3′-(1-((5-cyclopropyl-1H-pyrazol-3-yl)amino)-1-oxopropan-2-yl)-[1,1′-biphenyl]-4-yl)-4-(dimethylamino)but-2-enamide], the “% inhibition @ 10 μM” value was 99% and the half-inhibitory concentration (IC50) was 25 to 100 nM.

Consider `CC(C(=O)Nc1cc(C2CC2)[nH]n1)c1cccc(-c2ccc(NC(=O)/C=C/CN3CCOCC3)nc2)c1` (single isomer, unassigned) [Compound 11, (E)-N-(5-(3-(1-((5-cyclopropyl-1H-pyrazol-3-yl)amino)-1-oxopropan-2-yl)phenyl)pyridin-2-yl)-4-morpholinobut-2-enamide], for which the “% inhibition @ 10 μM” value stood at 75% and the IC50 was more than 100 nM.

On to `CC(C(=O)Nc1cc(C2CC2)[nH]n1)c1cccc(-c2ccc(NC(=O)/C=C/CN3CCOCC3)nc2)c1` (single isomer, unassigned) [Compound 12, (E)-N-(5-(3-(1-((5-cyclopropyl-1H-pyrazol-3-yl)amino)-1-oxopropan-2-yl)phenyl)pyridin-2-yl)-4-morpholinobut-2-enamide], for which the “% inhibition @ 10 μM” value came out at 98% and the IC50 was less than 25 nM.

For the compound `C=CC(=O)Nc1ccc(-c2cccc(C(C)C(=O)Nc3cc(C4CC4)[nH]n3)c2)cn1` (single isomer, unassigned) [Compound 21, N-(5-(3-(1-((5-cyclopropyl-1H-pyrazol-3-yl)amino)-1-oxopropan-2-yl)phenyl)pyridin-2-yl)acrylamide], the inhibition at 10 µM was 89% and the 50% inhibitory concentration (IC50) is more than 100 nM.

As for `C=CC(=O)Nc1ccc(-c2cccc(C(C)C(=O)Nc3cc(C4CC4)[nH]n3)c2)cn1` (single isomer, unassigned) [Compound 22, N-(5-(3-(1-((5-cyclopropyl-1H-pyrazol-3-yl)amino)-1-oxopropan-2-yl)phenyl)pyridin-2-yl)acrylamide], the “% inhibition @ 10 μM” value is 97% and the IC50 is less than 25 nM.

`CC(C(=O)Nc1cc(C2CC2)[nH]n1)c1cccc(-c2ccc(NC(=O)/C=C/CN3CC[C@H](F)C3)nc2)c1` (single isomer, unassigned) [Compound 47] had an inhibition at 10 µM of 91% and an IC50 of less than 25 nM.

Turning to `CC(C(=O)Nc1cc(C2CC2)[nH]n1)c1cccc(-c2ccc(NC(=O)/C=C/CN3CC[C@H](F)C3)nc2)c1` (single isomer, unassigned) [Compound 48], the “% inhibition @ 10 μM” value is on record as 90% and the IC50 was in the range of 25 to 100 nM.

In turn, `CC(C(=O)Nc1cc(C2CC2)[nH]n1)c1cccc(-c2ccc(NC(=O)/C=C/CN3CC[C@@H](F)C3)nc2)c1` (single isomer, unassigned) [Compound 50] registered an inhibition at 10 µM of 94% and a half-maximal inhibitory concentration (IC50) of less than 25 nM.

On to `CC(C(=O)Nc1cc(C2CC2)[nH]n1)c1cccc(-c2ccc(NC(=O)/C=C/CN3CC[C@@H](F)C3)nc2)c1` (single isomer, unassigned) [Compound 51], for which the “% inhibition @ 10 μM” value was determined as 90% and the IC50 is more than 100 nM.

Take `CC(C(=O)Nc1cc(C2CC2)[nH]n1)c1cccc(-c2ccc(NC(=O)/C=C/CN3CCCC3)nc2)c1` (single isomer, unassigned) [Compound 53, (E)-N-(5-(3-(1-((5-cyclopropyl-1H-pyrazol-3-yl)amino)-1-oxopropan-2-yl)-phenyl)pyridin-2-yl)-4-(pyrrolidin-1-yl)but-2-enamide]: the “% inhibition @ 10 μM” value is given as 100% and the IC50 is less than 25 nM.

Regarding `CC(C(=O)Nc1cc(C2CC2)[nH]n1)c1cccc(-c2ccc(NC(=O)/C=C/CN3CCCC3)nc2)c1` (single isomer, unassigned) [Compound 54, (E)-N-(5-(3-(1-((5-cyclopropyl-1H-pyrazol-3-yl)amino)-1-oxopropan-2-yl)-phenyl)pyridin-2-yl)-4-(pyrrolidin-1-yl)but-2-enamide], the “% inhibition @ 10 μM” value was found to be 78% and the IC50 was less than 25 nM.

In turn, `COC[C@@H]1CCCN1C/C=C/C(=O)Nc1ccc(-c2cccc(C(C)C(=O)Nc3cc(C4CC4)[nH]n3)c2)cn1` (single isomer, unassigned) [Compound 71] displayed an inhibition at 10 µM of 81% and a 50% inhibitory concentration (IC50) of more than 100 nM.

As for `COC[C@@H]1CCCN1C/C=C/C(=O)Nc1ccc(-c2cccc(C(C)C(=O)Nc3cc(C4CC4)[nH]n3)c2)cn1` (single isomer, unassigned) [Compound 72], the “% inhibition @ 10 μM” value was 98% and the 50% inhibitory concentration (IC50) is less than 25 nM.

With `CC(C(=O)Nc1cc(C2CC2)[nH]n1)c1cccc(-c2ccc(NC(=O)/C=C/CN(C)C)cc2)c1` (stereo not drawn) [Compound 1, (E)-N-(3′-(1-((5-cyclopropyl-1H-pyrazol-3-yl)amino)-1-oxopropan-2-yl)-[1,1′-biphenyl]-4-yl)-4-(dimethylamino)but-2-enamide], the inhibition at 10 µM worked out at 92% and the IC50 lay within 25 to 100 nM.

For the compound `CC(C(=O)Nc1cc(C2CC2)[nH]n1)c1ccc(F)c(-c2ccc(NC(=O)/C=C/CN(C)C)cc2)c1` (stereo not drawn) [Compound 4, (E)-N-(5′-(1-((5-cyclopropyl-1H-pyrazol-3-yl)amino)-1-oxopropan-2-yl)-2′-fluoro-[1,1′-biphenyl]-4-yl)-4-(dimethylamino)but-2-enamide], 10 µM produced 95% inhibition and the IC50 is more than 100 nM.

`CC(C(=O)Nc1cc(C2CC2)[nH]n1)c1cc(-c2ccc(NC(=O)/C=C/CN(C)C)cc2)ccc1F` (stereo not drawn) [Compound 5, (E)-N-(3′-(1-((5-cyclopropyl-1H-pyrazol-3-yl)amino)-1-oxopropan-2-yl)-4′-fluoro-[1,1′-biphenyl]-4-yl)-4-(dimethylamino)but-2-enamide] displayed an inhibition at 10 µM of 80% and an IC50 of more than 100 nM.

`CC(C(=O)Nc1cc(C2CC2)n(C)n1)c1cccc(-c2ccc(NC(=O)/C=C/CN(C)C)cc2)c1` (stereo not drawn) [Compound 6, (E)-N-(3′-(1-((5-cyclopropyl-1-methyl-1H-pyrazol-3-yl)amino)-1-oxopropan-2-yl)-[1,1′-biphenyl]-4-yl)-4-(dimethylamino)but-2-enamide]: testing at 10 µM gave an inhibition of 0%.

`CN(C)C/C=C/C(=O)Nc1ccc(-c2cccc(CC(=O)Nc3cc(C4CC4)[nH]n3)c2)cc1` [Compound 7, (E)-N-(3′-(2-((5-cyclopropyl-1H-pyrazol-3-yl)amino)-2-oxoethyl)-[1,1′-biphenyl]-4-yl)-4-(dimethylamino)but-2-enamide] showed an inhibition at 10 µM of 84% and an IC50 of more than 100 nM.

Compound `CCc1cc(NC(=O)C(C)c2cccc(-c3ccc(NC(=O)/C=C/CN(C)C)cc3)c2)n[nH]1` (stereo not drawn) [Compound 8, (E)-4-(dimethylamino)-N-(3′-(1-((5-ethyl-1H-pyrazol-3-yl)amino)-1-oxopropan-2-yl)-[1,1′-biphenyl]-4-yl)but-2-enamide] registered an inhibition at 10 µM of 92% and an IC50 of more than 100 nM.
